Assays:
Assay in all cases: PDSP radioligand binding assay
Details in all cases: read-out: RLBA Ki
[1] = target: T1, Alpha2B (Homo sapiens, UniProt P18089)
T1 construct: NIMH Psychoactive Drug Screening Program (assay performed there)
From the text: (§1) Receptor RLBA Ki Receptor activity
(§2) Suppl ementary Tabl e 1. Speci fi ci ty of STL1267. […]

[2] = target: T2, 5-HT2A (Homo sapiens, UniProt P28223)
T2 construct: NIMH Psychoactive Drug Screening Program (assay performed there)
From the text: as §1, §2

[3] = target: PBR (Rattus norvegicus, UniProt P16257)
From the text: as §1, §2

[4] = target: T3, 5-HT7A (Homo sapiens, UniProt P34969)
T3 construct: NIMH Psychoactive Drug Screening Program (assay performed there)
From the text: as §1, §2

[5] = target: T4, 5-HT3 (Homo sapiens, UniProt P46098)
T4 construct: NIMH Psychoactive Drug Screening Program (assay performed there)
From the text: as §1, §2

[6] = target: T5, Alpha1B (Homo sapiens, UniProt P35368)
T5 construct: NIMH Psychoactive Drug Screening Program (assay performed there)
From the text: as §1, §2

[7] = target: DAT (Homo sapiens, UniProt Q01959)
From the text: as §1, §2

[8] = target: M2 (Homo sapiens, UniProt P08172)
From the text: as §1, §2

[9] = target: Beta3 (Homo sapiens, UniProt P13945)
From the text: as §1, §2

[10] = target: D3 (Homo sapiens, UniProt P35462)
From the text: as §1, §2

[11] = target: T6, 5-HT2C (Homo sapiens, UniProt P28335)
T6 construct: NIMH Psychoactive Drug Screening Program (assay performed there)
From the text: as §1, §2

[12] = target: D5 (Homo sapiens, UniProt P21918)
From the text: as §1, §2

[13] = target: T7, Alpha1A (Homo sapiens, UniProt P35348)
T7 construct: NIMH Psychoactive Drug Screening Program (assay performed there)
From the text: as §1, §2

[14] = target: H4 (Homo sapiens, UniProt Q9H3N8)
From the text: as §1, §2

[15] = target: M4 (Homo sapiens, UniProt P08173)
From the text: as §1, §2

[16] = target: D2 (Homo sapiens, UniProt P14416)
From the text: as §1, §2

[17] = target: D4 (Homo sapiens, UniProt P21917)
From the text: as §1, §2

[18] = target: D1 (Homo sapiens, UniProt P21728)
From the text: as §1, §2

[19] = target: MOR (Homo sapiens, UniProt P35372)
From the text: as §1, §2

[20] = target: M5 (Homo sapiens, UniProt P08912)
From the text: as §1, §2

[21] = target: T8, Alpha2A (Homo sapiens, UniProt P08913)
T8 construct: NIMH Psychoactive Drug Screening Program (assay performed there)
From the text: as §1, §2

[22] = target: H2 (Homo sapiens, UniProt P25021)
From the text: as §1, §2

[23] = target: T9, Beta1 (Homo sapiens, UniProt P08588)
T9 construct: NIMH Psychoactive Drug Screening Program (assay performed there)
From the text: as §1, §2

[24] = target: T10, 5-HT1B (Homo sapiens, UniProt P28222)
T10 construct: NIMH Psychoactive Drug Screening Program (assay performed there)
From the text: as §1, §2

[25] = target: GABAA
From the text: as §1, §2

[26] = target: H1 (Homo sapiens, UniProt P35367)
From the text: as §1, §2

[27] = target: M3 (Homo sapiens, UniProt P20309)
From the text: as §1, §2

[28] = target: NET (Homo sapiens, UniProt P23975)
From the text: as §1, §2

[29] = target: T11, 5-HT5A (Homo sapiens, UniProt P47898)
T11 construct: NIMH Psychoactive Drug Screening Program (assay performed there)
From the text: as §1, §2

[30] = target: T12, 5-HT6 (Homo sapiens, UniProt P50406)
T12 construct: NIMH Psychoactive Drug Screening Program (assay performed there)
From the text: as §1, §2

[31] = target: T13, 5-HT2B (Homo sapiens, UniProt P41595)
T13 construct: NIMH Psychoactive Drug Screening Program (assay performed there)
From the text: as §1, §2

[32] = target: DOR (Homo sapiens, UniProt P41143)
From the text: as §1, §2

Measured: Ki

D5, sequence (P21918 whole entry): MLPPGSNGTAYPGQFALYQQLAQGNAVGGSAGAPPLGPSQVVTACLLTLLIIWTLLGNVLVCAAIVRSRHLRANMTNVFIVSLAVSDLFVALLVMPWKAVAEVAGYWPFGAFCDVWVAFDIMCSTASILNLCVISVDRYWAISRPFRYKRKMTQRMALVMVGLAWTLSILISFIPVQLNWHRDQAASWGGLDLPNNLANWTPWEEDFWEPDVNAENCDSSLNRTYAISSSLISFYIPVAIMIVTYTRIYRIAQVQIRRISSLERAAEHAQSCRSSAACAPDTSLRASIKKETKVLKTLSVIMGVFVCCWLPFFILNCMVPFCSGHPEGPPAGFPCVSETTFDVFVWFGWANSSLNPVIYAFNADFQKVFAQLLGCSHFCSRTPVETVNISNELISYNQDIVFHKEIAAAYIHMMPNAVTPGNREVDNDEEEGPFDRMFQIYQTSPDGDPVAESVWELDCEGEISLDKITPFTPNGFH
T12 sequence (P50406 whole entry, species assumed): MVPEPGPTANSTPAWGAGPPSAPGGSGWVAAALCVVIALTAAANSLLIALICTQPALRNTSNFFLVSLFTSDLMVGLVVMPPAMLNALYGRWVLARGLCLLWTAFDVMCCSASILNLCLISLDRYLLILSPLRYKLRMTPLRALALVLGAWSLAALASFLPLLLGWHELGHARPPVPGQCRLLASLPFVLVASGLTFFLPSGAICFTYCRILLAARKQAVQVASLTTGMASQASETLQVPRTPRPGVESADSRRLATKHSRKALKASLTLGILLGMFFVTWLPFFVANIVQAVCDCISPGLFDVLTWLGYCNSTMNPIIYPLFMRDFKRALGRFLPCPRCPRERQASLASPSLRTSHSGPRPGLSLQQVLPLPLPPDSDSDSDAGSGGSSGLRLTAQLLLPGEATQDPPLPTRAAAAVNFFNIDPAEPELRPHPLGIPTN
T2 sequence (P28223 whole entry, species assumed): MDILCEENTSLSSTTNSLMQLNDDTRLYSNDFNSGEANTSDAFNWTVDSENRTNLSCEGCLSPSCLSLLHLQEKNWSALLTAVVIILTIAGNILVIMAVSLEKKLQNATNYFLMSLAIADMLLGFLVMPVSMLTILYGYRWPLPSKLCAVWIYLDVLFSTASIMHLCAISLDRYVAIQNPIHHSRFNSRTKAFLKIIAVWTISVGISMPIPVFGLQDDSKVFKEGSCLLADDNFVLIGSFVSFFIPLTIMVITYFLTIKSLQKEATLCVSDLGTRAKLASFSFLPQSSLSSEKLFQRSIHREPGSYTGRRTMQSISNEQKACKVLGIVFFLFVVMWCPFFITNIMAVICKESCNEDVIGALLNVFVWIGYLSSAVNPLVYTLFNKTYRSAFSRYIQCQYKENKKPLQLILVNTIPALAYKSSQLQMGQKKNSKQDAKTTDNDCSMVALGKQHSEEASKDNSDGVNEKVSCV
H2, sequence (P25021 whole entry): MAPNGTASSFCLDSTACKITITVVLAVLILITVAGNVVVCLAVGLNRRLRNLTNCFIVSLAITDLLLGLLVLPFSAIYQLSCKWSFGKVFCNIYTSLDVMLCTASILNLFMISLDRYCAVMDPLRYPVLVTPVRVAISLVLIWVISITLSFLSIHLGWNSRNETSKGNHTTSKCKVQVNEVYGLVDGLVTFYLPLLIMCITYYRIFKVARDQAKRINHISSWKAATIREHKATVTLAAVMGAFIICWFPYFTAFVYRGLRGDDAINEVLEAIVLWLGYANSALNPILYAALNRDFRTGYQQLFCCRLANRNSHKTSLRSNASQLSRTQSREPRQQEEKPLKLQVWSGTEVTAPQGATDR
T11 sequence (P47898 whole entry, species assumed): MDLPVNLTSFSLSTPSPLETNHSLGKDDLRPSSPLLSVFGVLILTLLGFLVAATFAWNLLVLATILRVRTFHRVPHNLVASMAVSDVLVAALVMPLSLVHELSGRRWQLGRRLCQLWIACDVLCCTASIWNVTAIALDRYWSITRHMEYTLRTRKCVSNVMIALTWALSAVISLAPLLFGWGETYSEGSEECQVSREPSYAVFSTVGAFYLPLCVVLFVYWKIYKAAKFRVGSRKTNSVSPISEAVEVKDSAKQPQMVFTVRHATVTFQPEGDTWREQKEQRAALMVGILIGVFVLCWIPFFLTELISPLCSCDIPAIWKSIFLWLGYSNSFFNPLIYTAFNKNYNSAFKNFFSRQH
M3, sequence (P20309 whole entry): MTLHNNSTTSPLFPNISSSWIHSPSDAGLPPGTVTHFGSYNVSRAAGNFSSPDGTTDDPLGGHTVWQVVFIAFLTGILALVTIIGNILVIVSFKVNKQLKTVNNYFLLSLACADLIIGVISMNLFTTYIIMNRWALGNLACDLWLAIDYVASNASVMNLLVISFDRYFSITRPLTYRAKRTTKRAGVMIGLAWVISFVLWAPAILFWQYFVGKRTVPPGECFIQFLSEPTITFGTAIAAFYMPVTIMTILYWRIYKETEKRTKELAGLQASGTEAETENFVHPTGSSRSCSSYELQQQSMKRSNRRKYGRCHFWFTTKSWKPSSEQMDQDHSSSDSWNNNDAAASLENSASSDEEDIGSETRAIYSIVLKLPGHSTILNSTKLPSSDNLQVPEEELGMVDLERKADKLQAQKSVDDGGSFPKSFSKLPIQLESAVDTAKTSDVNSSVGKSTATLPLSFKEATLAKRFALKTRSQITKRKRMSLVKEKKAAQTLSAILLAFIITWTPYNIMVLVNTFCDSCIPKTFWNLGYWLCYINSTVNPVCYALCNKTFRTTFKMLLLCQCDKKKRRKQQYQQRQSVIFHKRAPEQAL
T10 sequence (P28222 whole entry, species assumed): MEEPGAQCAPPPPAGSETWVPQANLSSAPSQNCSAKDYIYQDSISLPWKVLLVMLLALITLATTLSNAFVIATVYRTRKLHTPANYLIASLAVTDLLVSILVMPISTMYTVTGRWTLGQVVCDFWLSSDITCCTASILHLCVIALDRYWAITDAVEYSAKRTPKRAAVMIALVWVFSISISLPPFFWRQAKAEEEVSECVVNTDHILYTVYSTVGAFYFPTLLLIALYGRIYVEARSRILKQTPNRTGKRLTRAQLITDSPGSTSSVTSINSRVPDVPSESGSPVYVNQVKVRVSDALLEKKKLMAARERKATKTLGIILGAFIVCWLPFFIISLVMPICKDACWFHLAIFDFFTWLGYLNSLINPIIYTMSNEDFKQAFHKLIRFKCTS
T13 sequence (P41595 whole entry, species assumed): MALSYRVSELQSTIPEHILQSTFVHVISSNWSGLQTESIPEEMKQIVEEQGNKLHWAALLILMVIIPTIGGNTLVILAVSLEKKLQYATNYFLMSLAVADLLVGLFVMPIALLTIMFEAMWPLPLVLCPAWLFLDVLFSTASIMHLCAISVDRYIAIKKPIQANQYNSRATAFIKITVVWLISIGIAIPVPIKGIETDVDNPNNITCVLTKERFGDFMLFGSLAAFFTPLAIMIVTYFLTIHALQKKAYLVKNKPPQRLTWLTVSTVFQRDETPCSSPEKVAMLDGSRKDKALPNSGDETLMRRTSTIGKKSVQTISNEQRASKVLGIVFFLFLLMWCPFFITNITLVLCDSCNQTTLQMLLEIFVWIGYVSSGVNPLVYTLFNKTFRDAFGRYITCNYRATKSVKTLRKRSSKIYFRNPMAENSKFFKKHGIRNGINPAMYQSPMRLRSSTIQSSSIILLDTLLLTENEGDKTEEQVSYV
D3, sequence (P35462 whole entry): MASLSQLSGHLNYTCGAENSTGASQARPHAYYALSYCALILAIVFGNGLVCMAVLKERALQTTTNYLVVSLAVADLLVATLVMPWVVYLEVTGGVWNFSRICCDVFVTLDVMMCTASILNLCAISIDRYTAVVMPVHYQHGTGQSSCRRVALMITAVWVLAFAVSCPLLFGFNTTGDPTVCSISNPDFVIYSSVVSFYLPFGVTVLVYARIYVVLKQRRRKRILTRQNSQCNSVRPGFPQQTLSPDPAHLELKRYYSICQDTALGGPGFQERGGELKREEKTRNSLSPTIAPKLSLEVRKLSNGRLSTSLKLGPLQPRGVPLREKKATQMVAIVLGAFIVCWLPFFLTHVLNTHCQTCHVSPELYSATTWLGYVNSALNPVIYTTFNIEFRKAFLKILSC
T9 sequence (P08588 whole entry): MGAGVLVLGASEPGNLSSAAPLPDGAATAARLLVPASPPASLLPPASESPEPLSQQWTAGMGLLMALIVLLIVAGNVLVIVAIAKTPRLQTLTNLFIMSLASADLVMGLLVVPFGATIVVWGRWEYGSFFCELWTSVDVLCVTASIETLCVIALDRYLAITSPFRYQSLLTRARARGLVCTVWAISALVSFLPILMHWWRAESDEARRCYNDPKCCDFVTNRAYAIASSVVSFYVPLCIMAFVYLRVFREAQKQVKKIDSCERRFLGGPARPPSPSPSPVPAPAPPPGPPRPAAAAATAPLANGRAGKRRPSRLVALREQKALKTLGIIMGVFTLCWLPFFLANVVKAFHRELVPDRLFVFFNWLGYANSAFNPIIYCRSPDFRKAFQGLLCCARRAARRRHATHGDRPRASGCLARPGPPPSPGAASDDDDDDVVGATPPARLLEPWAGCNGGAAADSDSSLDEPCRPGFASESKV
T3 sequence (P34969 1-445 isoform P34969-2): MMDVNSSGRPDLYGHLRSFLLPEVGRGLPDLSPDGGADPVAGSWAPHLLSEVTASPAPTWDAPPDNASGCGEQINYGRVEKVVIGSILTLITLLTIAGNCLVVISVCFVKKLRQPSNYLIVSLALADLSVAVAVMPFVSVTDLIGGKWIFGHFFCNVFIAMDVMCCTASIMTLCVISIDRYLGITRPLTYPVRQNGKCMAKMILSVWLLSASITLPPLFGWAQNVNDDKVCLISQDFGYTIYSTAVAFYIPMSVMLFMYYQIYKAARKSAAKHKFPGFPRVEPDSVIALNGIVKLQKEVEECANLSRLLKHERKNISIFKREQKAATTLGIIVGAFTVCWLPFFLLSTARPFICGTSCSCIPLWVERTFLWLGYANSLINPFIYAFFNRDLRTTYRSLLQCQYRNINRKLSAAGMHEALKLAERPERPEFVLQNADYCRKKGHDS

Clc1nnc2ccc(Oc3ccccc3-c3ccccc3)nn12 [STL1267]
> 10 µM: all assays above
